Test results reported in patent US20240245783A1, “METALLO-BETA-LACTAMASE INHIBITOR” (priority 2021, published 2024).

Target: T1, recombinant metallo-β-lactamase (recombinant IMP-1) (Serratia marcescens, UniProt P52699)
T1 construct: made in house; host or cells: E. coli BL21(DE3), vector pET29a
Assay: Inhibition of meropenem degradation by recombinant IMP-1 (Test Example 1)
Assay type: biochemical
Conditions: 100 μM meropenem, no inhibitor; 1 hour at 37° C.
Method: Based on the description of NON PATENT LITERATURE 5, a recombinant metallo-β-lactamase (recombinant IMP-1) was prepared. “NG_049172” of Database: RefSeq as the IMP-1 gene was incorporated into vector pET29a (Novagen), and then expressed in E. coli BL21(DE3) (Invitrogen).
Recombinant IMP-1 was dissolved in a 50 mM sodium phosphate buffer (pH 7.6) at a concentration of 0.25 μg/ml. Furthermore, zinc chloride was added to the solution in such a manner that the concentration was 0.1 μM. The resultant in this state was subjected to preincubation at 37° C. for 10 minutes. […] After 1 hour of incubation at 37° C. residual meropenem was quantified by tandem mass spectrometry. Meropenem was quantified by a multiple reaction monitoring method. […]
Reverse phase column: YMC-Triat C18 Plus column (2.1×50 mm); column temperature: 45° C.; mobile phase (2 liquids): mobile phase A (0.1% formic acid aqueous solution), mobile phase B (acetonitrile); gradient: increase from 1% B to 80% B for 10 minutes, keep it at 80% B for 0.5 minutes, and then return it to 1% B over 1 minute. […] Detection: multiple reaction monitoring, parent ion at 384.2, child ion at 68.1; measured in a positive ion mode.
FIG. 4 depicts a graph showing the results of quantifying the peak area of meropenem detected in FIG. 3. The peak of meropenem alone is expressed as 100%.

T1 sequence (P52699 19-246 limits assumed): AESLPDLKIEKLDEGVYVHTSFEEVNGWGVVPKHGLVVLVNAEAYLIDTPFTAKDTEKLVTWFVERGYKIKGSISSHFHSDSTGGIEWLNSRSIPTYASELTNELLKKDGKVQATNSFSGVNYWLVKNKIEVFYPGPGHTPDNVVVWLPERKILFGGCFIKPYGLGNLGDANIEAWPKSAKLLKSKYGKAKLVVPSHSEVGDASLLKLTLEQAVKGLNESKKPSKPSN

## C[C@@H](O)[C@H]1C(=O)N2C(C(=O)O)=C(S[C@@H]3CN[C@H](C(=O)N(C)C)C3)[C@H](C)[C@H]12 [meropenem, reference compound]
  degradation of meropenem on incubation with IMP-1: completely degraded
